The values that follow come from PMC6934184, “Selective DNA-PKcs inhibition extends the therapeutic index of localized radiotherapy and chemotherapy” (The Journal of Clinical Investigation, 2019).

Structures are written as SMILES.

For the test, the target named is T1, SNF1LK2 (Homo sapiens, UniProt Q9H0K1).
T1 construct: purchased Thermo Fisher Scientific (Life Technologies) SelectScreen
In words: SelectScreen Z'LYTE. It counts as biochemical. Put shortly:
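SelectScreen broad panel; activity (Z'LYTE, Adapta) plus binding formats. ATP: Km app for CSF1R Z'LYTE; 10 for CAMK1 Adapta. Readout = % per kinase.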

T1 sequence (Q9H0K1 whole entry): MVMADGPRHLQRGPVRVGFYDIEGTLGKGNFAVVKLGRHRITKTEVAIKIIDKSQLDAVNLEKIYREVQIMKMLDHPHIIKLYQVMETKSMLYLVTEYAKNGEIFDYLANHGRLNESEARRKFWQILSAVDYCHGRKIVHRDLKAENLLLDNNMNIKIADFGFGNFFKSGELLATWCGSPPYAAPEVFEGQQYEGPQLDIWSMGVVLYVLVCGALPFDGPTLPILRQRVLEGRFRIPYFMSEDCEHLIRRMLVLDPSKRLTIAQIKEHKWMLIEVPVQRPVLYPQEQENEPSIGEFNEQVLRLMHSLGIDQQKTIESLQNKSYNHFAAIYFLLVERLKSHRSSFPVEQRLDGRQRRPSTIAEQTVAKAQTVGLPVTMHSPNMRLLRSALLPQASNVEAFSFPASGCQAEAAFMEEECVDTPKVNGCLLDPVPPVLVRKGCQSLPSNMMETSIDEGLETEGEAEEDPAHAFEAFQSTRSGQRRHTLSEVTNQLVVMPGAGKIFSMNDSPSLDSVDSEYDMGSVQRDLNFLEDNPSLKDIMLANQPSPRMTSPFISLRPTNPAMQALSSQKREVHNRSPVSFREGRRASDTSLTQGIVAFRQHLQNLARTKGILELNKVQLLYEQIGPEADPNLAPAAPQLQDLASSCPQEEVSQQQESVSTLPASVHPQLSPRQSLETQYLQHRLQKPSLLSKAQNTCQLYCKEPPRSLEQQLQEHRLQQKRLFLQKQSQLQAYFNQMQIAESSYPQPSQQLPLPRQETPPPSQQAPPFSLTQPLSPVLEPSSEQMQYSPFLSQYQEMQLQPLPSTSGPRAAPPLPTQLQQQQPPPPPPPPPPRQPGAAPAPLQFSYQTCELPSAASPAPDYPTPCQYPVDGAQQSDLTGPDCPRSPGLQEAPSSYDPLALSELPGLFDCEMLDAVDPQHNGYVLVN

One may read the inhibition as the percentage by which the read-out fell short of the control. The low end stands for a weak effect, the high end for a strong effect. `CN(C(=O)CN1CCOCC1)c1ccc2sc3c(-c4cccc5c(=O)cc(N6CC7CCC(C6)O7)oc45)cccc3c2c1` [NU5455] returned an inhibition at 1 µM of 26.6%.
